A short description of data set [1]: Drug uptake in lysosome of fluorescein-dextran-labelled CHO cells at 1 uM incubated for overnight followed by compound washout measured by fluorescence microscopic analysis. Type of data set: ADME, subcellular, Cricetulus griseus. As to conditions: chinese hamster.
Data set [2] relates to CHO. Briefly: Induction of plasma membrane-mediated necrosis in CHO cells assessed as swelling of nuclei at 1 uM incubated for overnight followed by compound washout and subsequent 150W irradiation for 30 secs by fluorescence microscopic analysis. Type of data set: functional, cell-based. As to conditions: Cricetulus griseus.
A short description of data set [3]: Dark toxicity in CHO cells at 1 uM incubated for overnight followed by compound washout by fluorescence microscopic analysis. The format is cell-based, Cricetulus griseus. The settings on record: chinese hamster.
Data set [4] in a line: Drug uptake in endosome of CHO cells at 1 uM incubated for overnight followed by compound washout measured by fluorescence microscopic analysis. The format is ADME, subcellular, Cricetulus griseus. As to conditions: chinese hamster.
Data set [5] deals with CHO. Briefly: Induction of plasma membrane-mediated necrosis in EthD1-labelled CHO cells assessed as swelling of nuclei at 1 uM incubated for overnight followed by compound washout and subsequent 150W irradiation for 30 secs by fluorescence microscopic analysis. The format is functional, cell-based. As to conditions: Cricetulus griseus.
Data set [6] can be described thus: Drug uptake in endosome of fluorescein-dextran-labelled CHO cells at 1 uM incubated for overnight followed by compound washout measured by fluorescence microscopic analysis. Type of data set: ADME, subcellular, Cricetulus griseus. As to conditions: chinese hamster.
The test system of data set [7] is CHO. The experiment in a line: Induction of plasma membrane-mediated necrosis in CHO cells at 1 uM incubated for overnight followed by compound washout with PBS 5% FBS and subsequent 150W irradiation for 30 secs by fluorescence microscopic analysis. Type of data set: functional, cell-based. As to conditions: Cricetulus griseus.
The subject of data set [8] is CHO. Briefly: Induction of plasma membrane-mediated necrosis in EthD1-labelled CHO cells at 1 uM incubated for two hrs at 4 degC followed by compound washout and subsequent 150W irradiation for 30 secs by fluorescence microscopic analysis. Type of data set: functional, cell-based. As to conditions: Cricetulus griseus.

Activity calls are given as the source filed them. The rule behind the calls is not given here.

As to `CN1CC2c3nc(c(-c4c(F)c(F)c(S[C@@H]5O[C@H](CO)[C@@H](O)[C@H](O)[C@H]5O)c(F)c4F)c4ccc([nH]4)c(-c4c(F)c(F)c(S[C@@H]5O[C@H](CO)[C@@H](O)[C@H](O)[C@H]5O)c(F)c4F)c4nc(c(-c5c(F)c(F)c(S[C@@H]6O[C@H](CO)[C@@H](O)[C@H](O)[C@H]6O)c(F)c5F)c5ccc([nH]5)c3-c3c(F)c(F)c(S[C@@H]5O[C@H](CO)[C@@H](O)[C@H](O)[C@H]5O)c(F)c3F)C=C4)C2C1` (stereo partly drawn), the Drug uptake entry in data set [1], in data set [4] and in data set [6] was “Active” each time. Also, the outcome in data set [2], in data set [5] and in data set [8] was Active. The Activity result in data set [3] was “Non-Toxic”. Also, in data set [7], the outcome was inactive.

The values above are taken from ChEMBL document CHEMBL4152375, “Compromising the plasma membrane as a secondary target in photodynamic therapy-induced necrosis” (Bioorg Med Chem, 2018).
